The record followed here is patent US10633386B2, “BET protein degraders” (THE REGENTS OF THE UNIVERSITY OF MICHIGAN, priority 2016, dated 2020).

Holding throughout (assay type): cell-based
The test system of assay [1] is MDA-MB-157. The experiment in a line: Cell growth inhibition (CellTiter-Glo), breast cancer line MDA-MB-157. Conditions: MDA-MB-157 breast cancer cell line, 4 days. On the procedure:
(§1) Cell growth inhibitory activity of representative BET bromodomain degraders in representative breast cancer cell lines was determined using the CellTiter-Glo® Luminescent Cell Viability Assay. SUM-52 and SUM-159 cell lines were established at the University of Michigan Comprehensive Cancer Center. All the other breast cancer cell lines were obtained from the ATCC (Manassas, Va.). Cells were seeded in 384-well cell culture plates at a density of 1,000-2,500 cells/well with serially diluted compounds and incubated at 37° C. in an atmosphere of 95% air and 5% CO2 for 4 days. Cell viability was determined using the CellTiter-Glo® Luminescent Cell Viability Assay Kit (Promega, Madison, Wis.) according to the manufacture's instruction. Briefly, a volume of CellTiter-Glo® Reagent equal to the volume of cell culture medium was added to each well, and then the plates were incubated at room temperature for 20-60 minutes. The luminescent signal was measured using a Tecan Infinite M1000 multimode microplate reader (Tecan, Morrisville, N.C.). The half maximal inhibitory concentration (IC50) was calculated using the GraphPad Prism 5 software (GraphPad Software, La Jolla, Calif.). “Thd” is thalidomide.
For orientation: ATP-based viability assays read luminescence as a measure of living cells.

Assay [2] deals with HT-29. The experiment in a line: Cell growth inhibition (CellTiter-Glo), colon cancer line HT-29. Conditions: HT-29 colon cancer cell line. On the procedure: (§2) Cell growth inhibitory activity of representative BET bromodomain degraders in representative non-small cell lung cancer cell lines was determined using the CellTiter-Glo® Luminescent Cell Viability Assay. Cells were seeded in 384-well white opaque cell culture plates at a density of 2,000 cells/well with serially diluted compounds and incubated at 37° C. in an atmosphere of 95% air and 5% CO2 for 4 days. Cell viability was determined using the CellTiter-Glo® Luminescent Cell Viability Assay Kit (Promega, Madison, Wis.) according to the manufacture's instruction. Briefly, a volume of CellTiter-Glo® Reagent equal to the volume of cell culture medium was added to each well, and then the plates were incubated at room temperature for 10-20 minutes. The luminescent signal was measured using a Tecan Infinite M1000 multimode microplate reader (Tecan, Morrisville, N.C.). The half maximal inhibitory concentration (IC50) was calculated using the GraphPad Prism 5 software (GraphPad Software, La Jolla, Calif.). Cpd. A is a BET bromodomain inhibitor, see U.S. Appl. No. 62/121,637, having the following structure:
(§3) Cell growth inhibitory activity of representative BET bromodomain degraders in representative colon cancer cell lines, see Table 7, was determined as described in Example 17.

The subject of assay [3] is HCC70. The experiment in a line: Cell growth inhibition (CellTiter-Glo), breast cancer line HCC70. Conditions: 4 days. On the procedure:
as §1

In assay [4] the test system is HCC1954. The experiment in a line: Cell growth inhibition (CellTiter-Glo), breast cancer line HCC1954. Conditions: 4 days. The protocol:
as §1

Assay [5] has as its system H1975. Description: Cell growth inhibition (CellTiter-Glo), NSCLC line H1975. The settings on record: H1975 non-small cell lung cancer cell line, 4 days. On the procedure:
as §2, with “Appl.” for “Appl. No. 62/121,637, having the following structure:”

Assay [6] deals with H460. The experiment in a line: Cell growth inhibition (CellTiter-Glo), NSCLC line H460. Conditions: H460 non-small cell lung cancer cell line, 4 days. On the procedure:
as §2, with “Appl.” for “Appl. No. 62/121,637, having the following structure:”

Assay [7] relates to SW480. Description: Cell growth inhibition (CellTiter-Glo), colon cancer line SW480. On the procedure: as §2, §3
In assay [8] the test system is H1437. The experiment in a line: Cell growth inhibition (CellTiter-Glo), NSCLC line H1437. Conditions: H1437 non-small cell lung cancer cell line, 4 days. The protocol: as §2, with “Appl.” for “Appl. No. 62/121,637, having the following structure:”
Assay [9] has as its system SUM-159. The experiment in a line: Cell growth inhibition (CellTiter-Glo), breast cancer line SUM-159. Conditions: SUM-159 breast cancer cell line, 4 days. The protocol:
as §1

Assay [10] relates to LS1034. Description: Cell growth inhibition (CellTiter-Glo), colon cancer line LS1034. On the procedure: as §2, §3
In assay [11] the test system is CALU6. The experiment in a line: Cell growth inhibition (CellTiter-Glo), NSCLC line CALU6. The settings on record: CALU6 non-small cell lung cancer cell line, 4 days. The protocol: as §2, with “Appl.” for “Appl. No. 62/121,637, having the following structure:”
The subject of assay [12] is LS411N. The experiment in a line: Cell growth inhibition (CellTiter-Glo), colon cancer line LS411N. The protocol: as §2, §3
Assay [13] deals with H1869. The experiment in a line: Cell growth inhibition (CellTiter-Glo), NSCLC line H1869. The settings on record: H1869 non-small cell lung cancer cell line, 4 days. The protocol:
as §2, with “Appl.” for “Appl. No. 62/121,637, having the following structure:”

Assay [14] has as its system H2170. Description: Cell growth inhibition (CellTiter-Glo), NSCLC line H2170. The settings on record: H2170 non-small cell lung cancer cell line, 4 days. The protocol:
as §2, with “Appl.” for “Appl. No. 62/121,637, having the following structure:”

Assay [15] concerns HCC38. The experiment in a line: Cell growth inhibition (CellTiter-Glo), breast cancer line HCC38. The settings on record: 4 days. On the procedure: as §1
For assay [16], the system named is H520. Description: Cell growth inhibition (CellTiter-Glo), NSCLC line H520. Conditions: H520 non-small cell lung cancer cell line, 4 days. The protocol:
as §2, with “Appl.” for “Appl. No. 62/121,637, having the following structure:”

For assay [17], the system named is HCT116. The experiment in a line: Cell growth inhibition (CellTiter-Glo), colon cancer line HCT116. On the procedure:
as §2, §3

Assay [18] deals with H1299. Description: Cell growth inhibition (CellTiter-Glo), NSCLC line H1299. Conditions: H1299 non-small cell lung cancer cell line, 4 days. The protocol: as §2, with “Appl.” for “Appl. No. 62/121,637, having the following structure:”
Assay [19] has as its system HBL-100. The experiment in a line: Cell growth inhibition (CellTiter-Glo), breast cancer line HBL-100. The settings on record: HBL-100 breast cancer cell line, 4 days. The protocol:
as §1

Assay [20] deals with H322. Description: Cell growth inhibition (CellTiter-Glo), NSCLC line H322. The settings on record: H322 non-small cell lung cancer cell line, 4 days. The protocol:
as §2, with “Appl.” for “Appl. No. 62/121,637, having the following structure:”

Assay [21] deals with HCC1395. The experiment in a line: Cell growth inhibition (CellTiter-Glo), breast cancer line HCC1395. The settings on record: 4 days. The protocol: as §1
Assay [22] concerns A549. Description: Cell growth inhibition (CellTiter-Glo), NSCLC line A549. The settings on record: A549 non-small cell lung cancer cell line, 4 days. On the procedure:
as §2, with “Appl.” for “Appl. No. 62/121,637, having the following structure:”

Like-named read-outs stand apart in the source and are kept apart here.

By IC50 is commonly meant the concentration needed to halve the response being measured. Low readings indicate greater potency, high ones weaker potency.

Turning to `CCn1nc(C2CC2)cc1Nc1nc(COC)nc2[nH]c3cc(-c4c(C)noc4C)c(OC)cc3c12` [Cpd. A, reference compound], the IC50 was determined as 860 nM in assay [1] (Homo sapiens, 96 h); 69 ± 1 nM in assay [2] (Homo sapiens); 580 nM in [3] (Homo sapiens, 96 h); 1620 nM in [4] (Homo sapiens, 96 h); 40 nM in assay [5] (Homo sapiens, NCI-H1975, 96 h); 1790 nM in assay [6] (Homo sapiens, NCI-H460, 96 h). Also, the IC50 was determined as 567 ± 10 nM in assay [7] (Homo sapiens); 140 nM in [8] (Homo sapiens, NCI-H1437, 96 h); 510 nM in assay [9] (SUM159, 96 h); 455 ± 430 nM in [10] (Homo sapiens, LS-1034); 630 nM in assay [11] (Homo sapiens, Calu-6, 96 h); 110 ± 90 nM in assay [12] (Homo sapiens, LS-411N). The IC50 in assay [13] (96 h) amounted to 60 nM; in assay [14] (Homo sapiens, NCI-H2170, 96 h) it was 20 nM; in assay [15] (Homo sapiens, 96 h) it was 60 nM; in assay [16] (Homo sapiens, NCI-H520, 96 h) it was 280 nM; in assay [17] (Homo sapiens, HCT-116), 1160 ± 179 nM; in [18] (Homo sapiens, NCI-H1299, 96 h) it was 60 nM. In addition, the IC50 is 100 nM in [19] (Homo sapiens, 96 h); 340 nM in assay [20] (NCI-H322, 96 h); 1050 nM in [21] (Homo sapiens, 96 h); 20 nM in assay [22] (Homo sapiens, 96 h).

As for `CCn1nc(C2CC2)cc1Nc1nc(C(=O)NCCCOCCOCCOCCCNc2cccc3c2C(=O)N(C2CCC(=O)NC2=O)C3=O)nc2[nH]c3cc(-c4c(C)noc4C)c(OC)cc3c12` (stereo not drawn) [Cpd. No. 4], the IC50 came out at 2 nM in [1] (Homo sapiens, 96 h); 32 ± 20 nM in assay [2] (Homo sapiens); 35 nM in assay [3] (Homo sapiens, 96 h); 4 nM in assay [4] (Homo sapiens, 96 h); 3 nM in [5] (Homo sapiens, NCI-H1975, 96 h); 505 nM in [6] (Homo sapiens, NCI-H460, 96 h). Besides, the IC50 in assay [7] (Homo sapiens) was 37 ± 10 nM; in assay [8] (Homo sapiens, NCI-H1437, 96 h), 329 nM; in [9] (SUM159, 96 h), 166 nM; in [10] (Homo sapiens, LS-1034) it was 97 ± 20 nM; in [11] (Homo sapiens, Calu-6, 96 h) it was 9 nM; in assay [12] (Homo sapiens, LS-411N), 100 ± 60 nM. For the same molecule, the IC50 in [13] (96 h) turned out to be 9 nM; in [14] (Homo sapiens, NCI-H2170, 96 h) it was 99 nM; in [15] (Homo sapiens, 96 h) it was 4 nM; in assay [16] (Homo sapiens, NCI-H520, 96 h) it was 3 nM; in [17] (Homo sapiens, HCT-116), 130 ± 30 nM; in [18] (Homo sapiens, NCI-H1299, 96 h) it was 69 nM. Also, the IC50 was determined as 4 nM in assay [19] (Homo sapiens, 96 h); 44 nM in [20] (NCI-H322, 96 h); 277 nM in assay [21] (Homo sapiens, 96 h); 119 nM in [22] (Homo sapiens, 96 h).

As to `CCn1nc(C2CC2)cc1Nc1nc(C(=O)NCCCCNc2cccc3c2C(=O)N(C2CCC(=O)NC2=O)C3=O)nc2[nH]c3cc(-c4c(C)noc4C)c(OC)cc3c12` (stereo not drawn) [Cpd. No. 9], the half-maximal inhibitory concentration (IC50) in assay [2] (Homo sapiens) was determined as 48 ± 2 nM; in assay [5] (Homo sapiens, NCI-H1975, 96 h), 16 nM; in [6] (Homo sapiens, NCI-H460, 96 h), 51000 nM; in [7] (Homo sapiens), 247 ± 60 nM; in assay [8] (Homo sapiens, NCI-H1437, 96 h), 818 nM; in assay [10] (Homo sapiens, LS-1034), 368 ± 170 nM. The IC50 is 33 nM in [11] (Homo sapiens, Calu-6, 96 h); 560 ± 380 nM in assay [12] (Homo sapiens, LS-411N); 93 nM in assay [13] (96 h); 195 nM in assay [14] (Homo sapiens, NCI-H2170, 96 h); 11 nM in assay [16] (Homo sapiens, NCI-H520, 96 h); 585 ± 70 nM in assay [17] (Homo sapiens, HCT-116). Also, the IC50 in assay [18] (Homo sapiens, NCI-H1299, 96 h) was 228 nM; in assay [20] (NCI-H322, 96 h), 93 nM; in assay [22] (Homo sapiens, 96 h), 157 nM.

As for `Cc1sc2c(c1C)C(c1ccc(Cl)cc1)=N[C@@H](CC(=O)NCCCCNC(=O)COc1cccc3c1C(=O)N(C1CCC(=O)NC1=O)C3=O)c1nnc(C)n1-2` (stereo partly drawn) [dBET1, reference compound], the IC50 in [1] was 1170 nM; in assay [2], greater than 5000 nM; in assay [3] it was greater than 5000 nM; in [4], 3760 nM; in [5], greater than 5000 nM; in [6], greater than 5000 nM. Further, the 50% inhibitory concentration (IC50) in assay [7], in [8], in assay [9], in [10], in assay [11] and in [12] was greater than 5000 nM in each case. Further, the IC50 is greater than 5000 nM in assay [13]; greater than 5000 nM in [14]; 3700 nM in [15]; 4200 nM in [16]; greater than 5000 nM in assay [17]; greater than 5000 nM in assay [18]. Also, the IC50 in [19], in [20], in assay [21] and in [22] was greater than 5000 nM throughout.
